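1) Cells in 96-well plates. 2) Compound, 48 h, 5 concentrations. 3) Linear interpolation between surrounding doses. 4) Unreached endpoint = highest concentration. Definition used: TGI = concentration required for complete inhibition of growth.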

Among the test systems are M14 melanoma; NCI-H522 lung; SF-539 CNS; UACC-62 melanoma; OVCAR-8 ovarian; RPMI-8226 leukemia; NCI-H226 lung; OVCAR-5 ovarian; DU-145 prostate; CAKI-1 renal.
What all share (assay): growth of human tumour cells (NCI), 48 h

For the compound `Cc1occ2c1C(=O)CC1C2[C@@H](O)CC2C(C)(C)CCC[C@]12C` (some centres undefined), the TGI with M14 melanoma, with NCI-H522 lung, with SF-539 CNS, with UACC-62 melanoma, in the test with OVCAR-8 ovarian and in the test with RPMI-8226 leukemia was greater than 100 µM in each case. In the test with NCI-H226 lung, this compound came in with a TGI greater than 100 µM.
Take `OC(CCN1CCN(CCOC(c2ccccc2)c2ccccc2)CC1)c1ccc(Br)cc1` (centres undefined): the TGI in the test on M14 melanoma came to 11.2 µM; in the test on NCI-H522 lung, 29.4 µM; in the test on SF-539 CNS, 27.6 µM; in the test on OVCAR-5 ovarian, 28.3 µM; with UACC-62 melanoma, 22.8 µM; in the test on OVCAR-8 ovarian, 19.9 µM. Also, the values for the TGI in the test on DU-145 prostate, in the test on CAKI-1 renal and with NCI-H226 lung were 32.4 µM, 26.9 µM and 37.6 µM, respectively.
Regarding `O=C(N/N=C/c1ccc(Cl)cc1)c1cc(I)cc(I)c1O`, the TGI in the test on M14 melanoma, in the test on SF-539 CNS, in the test on OVCAR-5 ovarian, with OVCAR-8 ovarian, in the test with DU-145 prostate and with CAKI-1 renal was greater than 100 µM throughout. In addition, the TGI in the test on RPMI-8226 leukemia and in the test with NCI-H226 lung was greater than 100 µM throughout.
Regarding `O/N=C1\CCc2nonc2\C1=N/Nc1ccccc1`, the TGI with M14 melanoma, in the test with SF-539 CNS, in the test with OVCAR-5 ovarian, in the test on UACC-62 melanoma, with OVCAR-8 ovarian and with DU-145 prostate was greater than 100 µM throughout. For the same compound, the TGI in the test on CAKI-1 renal, in the test with RPMI-8226 leukemia and in the test with NCI-H226 lung was greater than 100 µM in each case.
In the case of `C#CCSc1nc(N)c2ncn(C3OC(COP(=O)(O)O)C(O)C3O)c2n1` (centres undefined), the TGI in the test with M14 melanoma, with NCI-H522 lung, with SF-539 CNS, in the test on OVCAR-5 ovarian, in the test with UACC-62 melanoma and in the test with OVCAR-8 ovarian was greater than 239 µM throughout. For the same compound, the TGI in the test with CAKI-1 renal, with RPMI-8226 leukemia and in the test on NCI-H226 lung was greater than 239 µM throughout.
Regarding `COC(=O)C1=C(C)N(NC(=O)c2ccccc2)C2(O)CCCC(=O)C12C` (centres undefined), the TGI with M14 melanoma, with NCI-H522 lung, with SF-539 CNS, in the test on OVCAR-5 ovarian, in the test on UACC-62 melanoma and in the test on OVCAR-8 ovarian was greater than 100 µM each time. Moreover, the TGI in the test on CAKI-1 renal, in the test on RPMI-8226 leukemia and with NCI-H226 lung was greater than 100 µM throughout.
For `N#Cc1c(Nc2nc3ccccc3s2)c2ccccc2n2c1nc1ccccc12`, the TGI with M14 melanoma, in the test on NCI-H522 lung, with SF-539 CNS, in the test with OVCAR-5 ovarian, in the test on UACC-62 melanoma and with OVCAR-8 ovarian was greater than 100 µM each time. Also, the TGI in the test with DU-145 prostate, in the test on CAKI-1 renal and in the test with RPMI-8226 leukemia was greater than 100 µM in each case.
On to `Cc1ccc(S(=O)(=O)c2ccc([N+](=O)[O-])o2)cc1`, for which the TGI with M14 melanoma turned out to be 3.82 µM; in the test on NCI-H522 lung, 0.578 µM; with SF-539 CNS, 3.34 µM; in the test with OVCAR-5 ovarian, 4.77 µM; in the test on UACC-62 melanoma it was 6.17 µM; in the test on OVCAR-8 ovarian, 1.82 µM. In addition, the results for the TGI in the test with DU-145 prostate, in the test on CAKI-1 renal and in the test with NCI-H226 lung were 8.58 µM, 1.54 µM and 31.5 µM, respectively.
On to `CN1Cc2c(nc(-c3ccc(Br)cc3)c[n+]2[O-])N(C)C1`, for which the TGI in the test with M14 melanoma, in the test with NCI-H522 lung, in the test on SF-539 CNS, in the test with OVCAR-5 ovarian, with OVCAR-8 ovarian and in the test with CAKI-1 renal was greater than 100 µM in each case. In addition, the TGI with NCI-H226 lung is greater than 100 µM.
For the compound `CSCCCNC(=O)c1csc(-c2csc(CCNC(=O)CNC(=O)CNC(=O)CNC(=O)OC(C)(C)C)n2)n1`, the TGI with M14 melanoma, with NCI-H522 lung, with SF-539 CNS, in the test with OVCAR-5 ovarian, in the test with UACC-62 melanoma and in the test with OVCAR-8 ovarian was greater than 100 µM in each case. The TGI in the test with DU-145 prostate, with CAKI-1 renal and in the test with NCI-H226 lung was greater than 100 µM throughout.
Consider `CC(C)(C)OC(=O)NCC(=O)NC1C/C(=N\O)c2sccc21` (centres undefined), for which the TGI in the test on M14 melanoma, in the test with SF-539 CNS, with OVCAR-5 ovarian, in the test on UACC-62 melanoma, in the test on OVCAR-8 ovarian and in the test on DU-145 prostate was greater than 100 µM in each case. Also, the TGI in the test with CAKI-1 renal and with NCI-H226 lung was greater than 100 µM throughout.
Turning to `CC(=O)c1ccc(N2CCN(C3=CC(=O)c4c(O)ccc(O)c4C3=O)CC2)cc1`, the TGI in the test on M14 melanoma, in the test with SF-539 CNS, with OVCAR-5 ovarian, in the test with UACC-62 melanoma, in the test with OVCAR-8 ovarian and with DU-145 prostate was greater than 100 µM in each case. For the same compound, the TGI in the test with CAKI-1 renal and with RPMI-8226 leukemia was greater than 100 µM each time.
On to `CC1=C[C@@H](C)C[C@]2(C)CC[C@H](O2)[C@]23CC[C@](C)(C[C@H](O2)[C@@H]2O[C@@](C)(CC2=O)[C@@H](O)[C@H]2CC[C@@]4(CCC[C@@H](O4)[C@H](C)C(=O)O[C@H]4C[C@H]([C@]5(O)OCC[C@H](C)[C@@H]5O)O[C@H]4C=C1)O2)O3`, for which the TGI in the test on NCI-H522 lung was greater than 10 µM; in the test on SF-539 CNS, 0.00503 µM; in the test with OVCAR-5 ovarian, greater than 10 µM; in the test with OVCAR-8 ovarian, greater than 10 µM; in the test on DU-145 prostate it was greater than 10 µM; in the test with CAKI-1 renal, 0.00515 µM.
Consider `O=C1c2ccccc2-c2nc(-c3ccccc3)cc3c2c1nc1ccccc13`, for which the TGI in the test with M14 melanoma was found to be 18.3 µM; in the test on OVCAR-5 ovarian, 61.4 µM; in the test with UACC-62 melanoma, 9.7 µM; with OVCAR-8 ovarian, 66.8 µM; with DU-145 prostate it was 29.6 µM; with CAKI-1 renal it was 74.9 µM. Further, the TGI with RPMI-8226 leukemia was found to be 22 µM; in the test on NCI-H226 lung, 54.5 µM.
Consider `Cc1ccnc(NC(=S)Nc2cccc(Cl)c2)c1`, for which the TGI is greater than 100 µM with M14 melanoma; 9.85 µM with NCI-H522 lung; greater than 100 µM in the test with SF-539 CNS; greater than 100 µM in the test with OVCAR-5 ovarian; greater than 100 µM with UACC-62 melanoma; greater than 100 µM with OVCAR-8 ovarian. Further, the TGI in the test with DU-145 prostate, in the test on CAKI-1 renal and in the test with RPMI-8226 leukemia was greater than 100 µM each time.

The values are drawn from PubChem BioAssay (NCI).
